The subject of test [1] is rats with oxaliplatin CIPN. The test can be described thus: Oxaliplatin CIPN mechanical hyperalgesia, Randall-Selitto paw-withdrawal test. The test is classed as in vivo, Sprague-Dawley rats. Here is the method: (§1) Experimental animals. Experiments were performed on 220-400 g male and female Sprague-Dawley rats, purchased from Charles River Laboratories (Hollister, CA, USA), housed three per cage, under a 12-hour light/dark cycle, in a temperature- and humidity-controlled animal care facility at the University of California, San Francisco. Food and water were available ad libitum. Experimental protocols were approved by the University of California, San Francisco, Institutional Animal Care and Use Committee, and adhered to the National Institutes of Health Guidelines for the care and use of laboratory animals.
(§2) Measurement of nociceptive threshold. Mechanical nociceptive threshold was quantified with an Ugo Basile Analgesymeter (Stoelting, Wood Dale, IL, USA), used to perform the Randall-Selitto paw-withdrawal test [61; 68; 69]. This device uses a dome-shaped plinth to apply a mechanical force that increases linearly with time, to the dorsum of a rat's hindpaw. To perform the Randall-Selitto paw-withdrawal test, rats were placed in cylindrical acrylic restrainers with lateral ports that allow access to the hind paw, as described previously. Rats were acclimatized to the testing procedure by placing them in restrainers for 1 h per day for 3 consecutive daily training sessions, and for 30-40 min prior to experiments.
Mechanical nociceptive threshold is defined as the force, in grams, applied by the plinth to the dorsum of the hindpaw, at which a rat withdraws its paw from the stimulus. Baseline paw-withdrawal threshold is defined as the mean of three readings taken before administration of test agents. To minimize experimenter bias, individuals conducting experiments were blinded to experimental treatments. Each experiment was performed on a different group of rats. Data are presented as mechanical nociceptive threshold, in grams (g) or percentage change from preintervention baseline.
Hyaluronans were initially dissolved in distilled water (dH2O) at a concentration of 10 μg/μL, stock solution, and further diluted by adding DMSO with three final concentrations of hyaluronan (1, 2 and 4 μg/μL), protamine or terpene; unless otherwise stated, the final concentration of DMSO was 75%. The DMSO vehicle was 75% DMSO in 0.9% saline. In one experiment, 500-1200 kDa hyaluronan was administered topically in 0.9% saline vehicle. PGE2 was dissolved in 0.9% saline at the same final concentration that we previously injected intradermally (100 ng/5 μL). In the experiments in which hyaluronan was dissolved in protamine or terpene vehicle, protamine was first dissolved in distilled water (dH2O) to a concentration of 5 μg/μ1, stock solution of hyaluronan was combined with protamine at the final concentration of 2 μg/μ1, in a volume of 3 μl, for topical administration; terpene was first dissolved in dH2O at the concentration of 2 μg/μ1, then hyaluronan was dissolved in stock solution of terpene to its final concentration of 2 μg/μ1, in a volume of 3 μl, for topical administration).
Oxaliplatin CIPN: Oxaliplatin was freshly dissolved in 0.9% saline at a concentration of 2 mg/mL just prior to its tail vein intravenous (i.v.) administration (1 mL/kg), to rats briefly anesthetized with isoflurane (2.5% in O2).
Hyaluronans (30 μL) were administered topically on the dorsum of the hind paw, dispensed from a P200 pipette (Gilson, Middleton, WI, USA) with a plastic pipette tip and then spread manually. […]
Before use, ODNs were reconstituted in nuclease-free 0.9% saline and then administered by the intrathecal (i.t.) route. As described previously, rats were anesthetized with isoflurane (2.5% in O2) and 120 μg of ODN, in a volume of 20 μL, injected i.t., using a syringe ([…]) attached to a 29-gauge hypodermic needle that was inserted into the subarachnoid space, between the L4 and L5 vertebrae. The i.t. site of the injectate was confirmed by a sudden flick of the rat's tail, a reflex evoked by subarachnoid space access and bolus i.t. injection. […]

In test [2] the test system is rats with bortezomib CIPN. The test can be described thus: Bortezomib CIPN mechanical hyperalgesia, Randall-Selitto paw-withdrawal test. It counts as in vivo, Sprague-Dawley rats. The conditions noted are these: topical 2 μg/μL. The protocol:
as §1, §2
Mechanical nociceptive threshold is defined as the force, in grams, applied by the plinth to the dorsum of the hindpaw, at which a rat withdraws its paw from the stimulus. Baseline paw-withdrawal threshold is defined as the mean of three readings taken before administration of test agents. To minimize experimenter bias, individuals conducting experiments were blinded to experimental treatments. Each experiment was performed on a different group of rats. Data are presented as mechanical nociceptive threshold, in grams (g) or percentage change from preintervention baseline. […]

The test system of test [3] is 5-HT-induced scratching behavior in rats. Description: 5-HT-induced scratching (itch) behavior. It counts as in vivo. The conditions noted are these: topical, protamine vehicle. The protocol: Topical hyaluronan attenuates itch behavior in rats. Intradermal administration of serotonin (5-HT) elicited acute scratching behavior, using the method of Nojima and Carstens {Nojima and Carstens, 2003, #99335; PMID: 12814838}. Rats were acclimated to a testing chamber for 30 min, and then briefly anesthetized with 2% isoflurane, during which the fur over the nape of the neck was shaved, and 5-HT (200 μg in 10 μl 0.9% saline vehicle) injected with a 30 gauge needle. In the topical hyaluronan group, hyaluronan (100 μg in 50 μl 75% DMSO in water vehicle) was applied to the skin 30 mins and again 5 mins before administration of 5-HT. Rats were placed back into testing chambers and their behavior video recorded for 40 min. Number of hind paw scratches directed at the injection site were counted by watching video playback at half normal speed, and total number of scratches in 2-min intervals recorded. Rats were treated with 5-HT alone and topical hyaluronan with 5-HT, with 4 days between experimental sessions, allowing for use of paired t-tests to compare data. Data are presented as cumulative number of scratches (FIG. 9A), and as total scratches over the 40-min observation period (FIG. 9B). […] See also, FIG. 10, which includes additional data showing that topical hyaluronan attenuates 5-HT-induced scratching behavior. […] Data are presented as cumulative number of scratches.

The next test concerns rats. The conditions noted are these: previously shown; cited from earlier work.

Entries after “also recorded” stand apart in the source; their conditions may differ.

hyaluronan [500-1200 kDa hyaluronan]: the “duration of anti-hyperalgesic effect after initial topical application” value in test [1] (CIPN rats, initial application, DMSO vehicle) was “approximately 60 minutes”. For the same substance, the “hyperalgesia induced by oxaliplatin” value in test [1] (female rats given i.t. GPR30 antisense or mismatch ODN, topical 2 μg/μL, 30 μL) is given as “attenuated the hyperalgesia induced by oxaliplatin only in the GPR30 antisense-treated group”; in test [1] (gonad intact female rats, topical 2 μg/μL, 30 μL in DMSO vehicle) it was “did not attenuate hyperalgesia”; in test [1] (male rats given i.t. CD44 antisense or mismatch ODN, topical 2 μg/μL, 30 μL in DMSO), “only attenuated the hyperalgesia induced by oxaliplatin in the CD44 mismatch-treated group”. Also, in test [1] (male rats with oxaliplatin CIPN, topical, combined with DMSO), the “CIPN hyperalgesia, effect of hyaluronan molecular weight range” value is “produced robust anti-hyperalgesia, of similar magnitude and duration”. Further, in test [1] (male rats, reapplied at the same site after first effect wore off, DMSO vehicle), the “time at which anti-hyperalgesia was still present after the second administration” value is not below 180 min. In addition, the “oxaliplatin CIPN hyperalgesia” value in test [1] (male rats, topical 1 μg/μL, 30 μL in DMSO, day 7) is “only attenuates CIPN hyperalgesia 10 min after application”; in test [1] (male rats, topical 2 μg/μL in 0.9% saline, without DMSO) it was “did not attenuate oxaliplatin CIPN hyperalgesia”; in test [1] (male rats, topical 2 μg/μL, 30 μL in DMSO, day 7), “attenuated hyperalgesia 10, 30 and 60 min after application; also recorded: induced anti-hyperalgesia”; in test [1] (male rats, topical 4 μg/μL, 30 μL in DMSO, day 7) it was “attenuated hyperalgesia 10, 30 and 60 min after application”. Further, the “anti-hyperalgesia in oxaliplatin CIPN” value is “did not produce anti-hyperalgesia” in test [1] (male rats, topical 2 μg/μL, 30 μL in 5% DMSO); “did not produce anti-hyperalgesia” in test [1] (male rats, topical 2 μg/μL, 30 μL in 15% DMSO); “produced anti-hyperalgesia” in test [1] (male rats, topical 2 μg/μL, 30 μL in 20% DMSO); “produced anti-hyperalgesia” in test [1] (male rats, topical 2 μg/μL, 30 μL in 25% DMSO); “produced anti-hyperalgesia” in test [1] (male rats, topical 2 μg/μL, 30 μL in 50% DMSO); “produced anti-hyperalgesia” in test [1] (male rats, topical 2 μg/μL, 30 μL in 75% DMSO). Further, the “time by which anti-hyperalgesia dissipated, first administration” value in test [1] (male rats, topical 2 μg/μL, 30 μL in DMSO, repeated-administration experiment) is not above 120 min. For the same substance, the “time after application by which the anti-hyperalgesic effect dissipated” value in test [1] (male rats, topical 2 and 4 μg/μL in DMSO) was not above 120 min. In test [1] (ovariectomized female rats, topical 2 μg/μL, 30 μL in DMSO), the “anti-hyperalgesia in oxaliplatin-induced CIPN” value is reported as “induced anti-hyperalgesia of similar magnitude to that observed in gonad intact male rats”. In addition, the “hyperalgesia induced by bortezomib” value in test [2] (female rats, 30 μL in DMSO vehicle) is listed as “did not attenuate hyperalgesia”; in test [2] (male rats, 30 μL in DMSO, day 7), “attenuated hyperalgesia induced by bortezomib”. For the same substance, the “number of 5-HT-induced scratches” value in test [3] (female rats) and in test [3] (male rats) was “significantly attenuated the number of 5-HT-induced scratches” throughout. Moreover, the “nociceptive effect of intradermal injection” value in the test with rats was “induced anti-hyperalgesia”.

The record behind these values is patent publication US20240156856A1, “NOVEL APPLICATIONS OF HYALURONIC ACID FOR TREATMENT OF PAIN AND PRURITIS” (THE REGENTS OF THE UNIVERSITY OF CALIFORNIA, priority 2022, published 2024).
